Patent US9833497B2, “Human originated EGF domain proteins and use of the same” (CHENGDU SOURCEBIO LIMITED-LIABILITY COMPANY, priority 2013, dated 2017)

Legend:
Assay type in all cases: cell-based
[1] = tested on: Klebsiella pneumonia; test: MIC against Gram-negative bacteria: Klebsiella pneumonia; conditions: for MIC K. pneumonia / MIC against K. pneumonia: 5×10^5 CFU/mL; for MIC: K. pneumonia
Summary of the method: (§1)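 LB broth cultures at McFarland 0.5, spun down, resuspended, diluted to 5×10^5 CFU/mL final. Two-fold serial dilutions of purified human EGF domain proteins, triplicate. 37° C, 175 rpm shaking. Endpoint: no visible growth.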

[2] = tested on: E. coli DH5α; test: Antibacterial activity: MIC and growth curve against E. coli DH5α in 96-well plate; conditions: minimal inhibitory concentration against E. coli DH5α; 96-well plate, 5×10^5 CFU/mL, 37° C., judged after 8 h
Summary of the method: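 Log-phase bacteria (OD600 ~0.5) resuspended in LB at 5×10^5 CFU/mL, exposed to recombinant protein at 50, 25, 12.5 μg/mL final in triplicate, 37 °C shaking at 175 rpm. OD600 read every 30 min; MIC is lowest concentration showing no growth.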

[3] = tested on: Aeromonas hydrophila; test: MIC against Gram-negative bacteria: Aeromonas hydrophila; conditions: for MIC A. hydrophila / MIC against A. hydrophila: 5×10^5 CFU/mL; for MIC: A. hydrophila
Summary of the method: as §1

[4] = tested on: E. coli BL21; test: MIC against Gram-negative bacteria: E. coli BL21; conditions: for MIC E. coli BL21 / MIC against E. coli BL21: 5×10^5 CFU/mL
Summary of the method: as §1

[5] = tested on: Citrobacter diversus; test: MIC against Gram-negative bacteria: Citrobacter diversus; conditions: for MIC C. diversus / MIC against C. diversus: 5×10^5 CFU/mL; for MIC: C. diversus
Summary of the method: as §1

[6] = tested on: Moraxella catarrhalis; test: MIC against Gram-negative bacteria: Moraxella catarrhalis; conditions: for MIC M. catarrhalis / MIC against M. catarrhalis: 5×10^5 CFU/mL; for MIC: M. catarrhalis
Summary of the method: as §1

[7] = tested on: Proteus mirabilis; test: MIC against Gram-negative bacteria: Proteus mirabilis; conditions: for MIC P. mirabilis / MIC against P. mirabilis: 5×10^5 CFU/mL; for MIC: P. mirabilis
Summary of the method: as §1

[8] = tested on: Pseudomonas aeruginosa; test: MIC against Gram-negative bacteria: Pseudomonas aeruginosa; conditions: for MIC P. aeruginosa / MIC against P. aeruginosa: 5×10^5 CFU/mL; for MIC: P. aeruginosa
Summary of the method: as §1

[9] = tested on: Serratia marcescens; test: MIC against Gram-negative bacteria: Serratia marcescens; conditions: for MIC S. marcescens / MIC against S. marcescens: 5×10^5 CFU/mL; for MIC: S. marcescens
Summary of the method: as §1

[10] = tested on: Enterobacter cloacae; test: MIC against Gram-negative bacteria: Enterobacter cloacae; conditions: for MIC E. cloacae / MIC against E. cloacae: 5×10^5 CFU/mL; for MIC: E. cloacae
Summary of the method: as §1

[11] = tested on: Proteus vulgaris; test: MIC against Gram-negative bacteria: Proteus vulgaris; conditions: for MIC P. vulgaris / MIC against P. vulgaris: 5×10^5 CFU/mL; for MIC: P. vulgaris
Summary of the method: as §1

[12] = 10 h cultivation at 37° C., two-fold serial dilution
[13] = E. coli BL21, 10 h cultivation at 37° C.

PRT685 (DVNECLEGDFCFPHGECLNTDGSFACTCAPGYRPGPRGASCL; listed as Homo sapiens)
50 µg/mL: MIC K. pneumonia ([1]; 96-well plate, 37° C., 10 h) | MIC [2] | MIC A. hydrophila ([3]; 96-well plate, 37° C., 10 h) | MIC M. catarrhalis ([6]; 96-well plate, 37° C., 10 h) | MIC S. marcescens ([9]; 96-well plate, 37° C., 10 h) | MIC P. vulgaris ([11]; 96-well plate, 37° C., 10 h)
12.5 µg/mL: MIC C. diversus ([5]; 96-well plate, 37° C., 10 h) | MIC P. aeruginosa ([8]; 96-well plate, 37° C., 10 h) | MIC E. cloacae ([10]; 96-well plate, 37° C., 10 h)
25 µg/mL: MIC E. coli BL21 ([4]; 96-well plate, 37° C., 10 h) | MIC P. mirabilis ([7]; 96-well plate, 37° C., 10 h)

PRT459 (RTAKCEPACRHGGVCVRPNKCLCKKGYLGPQCE; listed as Homo sapiens)
50 µg/mL: MIC against K. pneumonia ([1]; 96-well plate, 37° C., 10 h) | MIC against M. catarrhalis ([6]; 96-well plate, 37° C., 10 h)
25 µg/mL: MIC [2] | MIC against C. diversus ([5]; 96-well plate, 37° C., 10 h) | MIC against P. mirabilis ([7]; 96-well plate, 37° C., 10 h) | MIC against P. aeruginosa ([8]; 96-well plate, 37° C., 10 h) | MIC against S. marcescens ([9]; 96-well plate, 37° C., 10 h) | MIC against E. cloacae ([10]; 96-well plate, 37° C., 10 h)
12.5 µg/mL: MIC against A. hydrophila ([3]; 96-well plate, 37° C., 10 h) | MIC against E. coli BL21 ([4]; 96-well plate, 37° C., 10 h) | MIC against P. vulgaris ([11]; 96-well plate, 37° C., 10 h)

PRT1159 (TTDDQENECQHEAVCKDEINRPRCSCSLSYIGRLCV; listed as Homo sapiens)
25 µg/mL: MIC A. hydrophila [3, 12] | MIC M. catarrhalis [6, 12] | MIC P. vulgaris [11, 12]
50 µg/mL: MIC K. pneumonia [1, 12] | MIC E. coli BL21 [4, 12] | MIC C. diversus [5, 12]
12.5 µg/mL: MIC [2] | MIC P. mirabilis [7, 12] | MIC P. aeruginosa [8, 12] | MIC S. marcescens [9, 12] | MIC E. cloacae [10, 12]

PRT1025 (GHNYCSVNNGGCTHLCLATPGSRTCRCPDNTLGVDCI; listed as Homo sapiens)
25 µg/mL: MIC ([1]; 10 h cultivation at 37° C.) | MIC [4, 13] | MIC ([6]; 10 h cultivation at 37° C.) | MIC ([11]; 10 h cultivation at 37° C.)
50 µg/mL: MIC [2] | MIC ([5]; 10 h cultivation at 37° C.) | MIC ([9]; 10 h cultivation at 37° C.) | MIC ([10]; 10 h cultivation at 37° C.)
100 µg/mL: MIC ([3]; 10 h cultivation at 37° C.)
12.5 µg/mL: MIC ([7]; 10 h cultivation at 37° C.) | MIC ([8]; 10 h cultivation at 37° C.)

PRT1005 (LMDLCAQKPCPRNSHCLQTGPSFHCLCLQGWTGPLCN; listed as Homo sapiens)
12.5 µg/mL: MIC ([1]; 10 h cultivation at 37° C.) | MIC [4, 13] | MIC ([6]; 10 h cultivation at 37° C.)
50 µg/mL: MIC [2] | MIC ([3]; 10 h cultivation at 37° C.) | MIC ([8]; 10 h cultivation at 37° C.) | MIC ([11]; 10 h cultivation at 37° C.)
25 µg/mL: MIC ([5]; 10 h cultivation at 37° C.) | MIC ([7]; 10 h cultivation at 37° C.) | MIC ([9]; 10 h cultivation at 37° C.) | MIC ([10]; 10 h cultivation at 37° C.)

PRT1200 (DIDECSEGIIECHNHSRCVNLPGWYHCECRSGFHDDGTY; listed as Homo sapiens)
12.5 µg/mL: MIC against K. pneumonia ([1]; Klebsiella pneumonia, 96-well plate, 37° C., 10 h) | MIC [2] | MIC against E. coli BL21 ([4]; E. coli BL21, 96-well plate, 37° C., 10 h) | MIC against C. diversus ([5]; Citrobacter diversus, 96-well plate, 37° C., 10 h) | MIC against P. aeruginosa ([8]; Pseudomonas aeruginosa, 96-well plate, 37° C., 10 h) | MIC against P. vulgaris ([11]; Proteus vulgaris, 96-well plate, 37° C., 10 h)
25 µg/mL: MIC against A. hydrophila ([3]; Aeromonas hydrophila, 96-well plate, 37° C., 10 h) | MIC against P. mirabilis ([7]; Proteus mirabilis, 96-well plate, 37° C., 10 h) | MIC against E. cloacae ([10]; Enterobacter cloacae, 96-well plate, 37° C., 10 h)
50 µg/mL: MIC against M. catarrhalis ([6]; Moraxella catarrhalis, 96-well plate, 37° C., 10 h) | MIC against S. marcescens ([9]; Serratia marcescens, 96-well plate, 37° C., 10 h)

PRT992 (LEDMCLSQPCHGDAQCSTNPLTGSTLCLCQPGYSGPTCH; listed as Homo sapiens)
25 µg/mL: MIC ([3]; 10 h cultivation at 37° C.) | MIC ([5]; 10 h cultivation at 37° C.) | MIC ([6]; 10 h cultivation at 37° C.) | MIC ([7]; 10 h cultivation at 37° C.) | MIC ([9]; 10 h cultivation at 37° C.) | MIC ([10]; 10 h cultivation at 37° C.)
12.5 µg/mL: MIC ([1]; 10 h cultivation at 37° C.) | MIC [2] | MIC [4, 13] | MIC ([8]; 10 h cultivation at 37° C.) | MIC ([11]; 10 h cultivation at 37° C.)
